The source of these data is US20070099983A1, “Aminocyclohexyl ether compounds and uses thereof” (Cardiome Pharma Corp., priority 2003, published 2007).

Structures can show the parent of a compound that is named as a salt.

This series has as its system conscious rats. In words: Determination of CNS toxicity: convulsions in conscious rats on increasing i.v. infusion. Format: in vivo.
[1] abbreviates: minimum i.v. infusion rate at which partial or complete convulsions are observed, conscious rats, maximum rate 64.
[2] abbreviates: total amount of drug infused when partial or complete convulsions are first observed, conscious rats.

For `Cl.FC(F)(F)c1ccccc1CCO[C@H]1CCCC[C@H]1N1CCOCC1` (racemic) [Compound 42, (1R,2S)/(1S,2R)-2-(4-morpholinyl)-1-[(2-trifluoromethyl)-phenethoxy]-cyclohexane monohydrochloride], the cum conv dose (rat, in vivo) turned out to be 102 µmol/kg. Where the note is “rat, in vivo, iv”, the convulsion dose came out at 16 µmol/kg/min.

In the case of `COc1ccc(CCO[C@H]2CCCC[C@@H]2N2CC[C@@H](O)C2)cc1OC.Cl` [Compound 2, (1S,2S)-2-[(3R)-Hydroxypyrrolidinyl]-1-(3,4-dimethoxyphenethoxy)cyclohexane monohydrochloride], under “rat, in vivo”, the cum conv dose was found to be 500.67 µmol/kg. This molecule also registered a convulsion dose (rat, in vivo, iv) of 64 µmol/kg/min.

For `COc1ccc(CCO[C@H]2CCCCC2N2CCC(O)C2)cc1OC` (stereo partly drawn) [Compound 3, (1R,2R)/(1S,2S)-2-[(3R)/(3S)-Hydroxypyrrolidinyl]-1-(3,4-dimethoxyphenethoxy)-cyclohexane monohydrochloride], the cum conv dose (rat, in vivo) came out at 502 µmol/kg. Under “rat, in vivo, iv”, this molecule had a convulsion dose of 64 µmol/kg/min.

In turn, `COc1ccc(CCO[C@H]2CCCCC2N2CC[C@@H](O)C2)cc1OC.Cl` (stereo partly drawn) [Compound 4, (1R,2R)/(1S,2S)-2-[(3R)-Hydroxypyrrolidinyl]-1-(3,4-dimethoxyphenethoxy)-cyclohexane monohydrochloride] returned a cum conv dose (rat, in vivo) of 502 µmol/kg. The convulsion dose (rat, in vivo, iv) was found to be 64 µmol/kg/min.

The molecule `COc1ccc(CCO[C@H]2CCCCC2N2CC[C@H](O)C2)cc1OC.Cl` (stereo partly drawn) [Compound 5, (1R,2R)/(1S,2S)-2-[(3S)-Hydroxypyrrolidinyl]-1-(3,4-dimethoxyphenethoxy)-cyclohexane monohydrochloride] displayed a cum conv dose (rat, in vivo) of 438 µmol/kg. In addition, the convulsion dose (rat, in vivo, iv) came to 64 µmol/kg/min.

The molecule `COc1ccc(CCO[C@@H]2CCCC[C@H]2N2CC[C@H](O)C2)cc1OC.Cl` [Compound 6, (1R,2R)-2-[(3S)-Hydroxypyrrolidinyl]-1-(3,4-dimethoxyphenethoxy) cyclohexane monohydrochloride] had a cum conv dose (rat, in vivo) of 472.24 µmol/kg. Under “rat, in vivo, iv”, this molecule had a convulsion dose of 64 µmol/kg/min.

As to `COc1ccc(CCO[C@H]2CCCC[C@@H]2N2CC[C@H](O)C2)cc1OC.Cl` [Compound 7, (1S,2S)-2-[(3S)-Hydroxypyrrolidinyl]-1-(3,4-dimethoxyphenethoxy)cyclohexane monohydrochloride], the cum conv dose (rat, in vivo) worked out at 451.67 µmol/kg. Besides, the convulsion dose (rat, in vivo, iv) turned out to be 64 µmol/kg/min.

Turning to `COc1ccc(CCOC2CCCC[C@H]2N2CCOCC2)cc1OC.Cl` (stereo partly drawn) [Compound 8, 4-{(1R,2R)/(1S,2S)-2-[2-(3,4-dimethoxy-phenyl)ethoxy]cyclohexyl}morpholine hydrochloride], the cum conv dose (rat, in vivo) stood at 113 µmol/kg. For the same molecule, the convulsion dose (rat, in vivo, iv) worked out at 16 µmol/kg/min.

`COc1ccc(CCO[C@H]2CCCCC2N2CCC3(C2)OCCO3)cc1OC.Cl` (stereo partly drawn) [Compound 9, 7-{(1R,2R)/(1S,2S)-2-[2-(3,4-dimethoxyphenyl)-ethoxy]cyclohexyl}-1,4-dioxa-7-azaspiro[4.4]nonane hydrochloride] had a convulsion dose under setting [1] of 16 µmol/kg/min. Under setting [2], the cum conv dose came to 91.33 µmol/kg.

Consider `COc1ccc(CCO[C@H]2CCCCC2N2CCCC2)cc1OC.Cl` (stereo partly drawn) [Compound 10, 1-{(1R,2R)/(1S,2S)-2-[2-(3,4-dimethoxyphenyl)-ethoxy]cyclohexyl}-pyrrolidine hydrochloride], for which the cum conv dose (rat, in vivo) was 118 µmol/kg. The molecule further showed a convulsion dose (rat, in vivo, iv) of 21.33 µmol/kg/min.

Regarding `COc1ccc(CCO[C@H]2CCCCC2N2CC[C@H](OCc3ccccc3)C2)cc1OC.Cl` (stereo partly drawn) [Compound 11, (3S)-3-benzyloxy-1-{(1R,2R)/(1S,2S)-2-[2-(3,4-dimethoxyphenyl)-ethoxy]cyclohexyl}-pyrrolidine hydrochloride], the cum conv dose (rat, in vivo) is 38.13 µmol/kg. In addition, for the setting “rat, in vivo, iv”, the convulsion dose is 8 µmol/kg/min.

For the molecule `COc1ccc(CCO[C@H]2CCCCC2N2CC[C@@H](OCc3ccccc3)C2)cc1OC.Cl` (stereo partly drawn) [Compound 12, (3R)-3-benzyloxy-1-{(1R,2R)/(1S,2S)-2-[2-(3,4-dimethoxyphenyl)-ethoxy]cyclohexyl}-pyrrolidine hydrochloride], the cum conv dose (rat, in vivo) came to 51.1 µmol/kg. Under “rat, in vivo, iv”, this molecule yielded a convulsion dose of 8 µmol/kg/min.

As for `COc1ccc(CCO[C@H]2CCCCC2N2CC[C@H](OC(C)=O)C2)cc1OC.Cl` (stereo partly drawn) [Compound 13, (3S)-1-{(1R,2R)/(1S,2S)-2-[2-(3,4-dimethoxyphenyl)-ethoxy]cyclohexyl}-pyrrolidin-3-yl acetate hydrochloride], the cum conv dose (rat, in vivo) amounted to 51.9 µmol/kg. In addition, the convulsion dose (rat, in vivo, iv) was 8 µmol/kg/min.

Molecule `COc1ccc(CCOC2CCCC[C@H]2N2CCC(F)C2)cc1OC.Cl` (stereo partly drawn) [Compound 14, (3R)/(3S)-1-{(1R,2R)/(1S,2S)-2-[2-(3,4-dimethoxyphenyl)-ethoxy]cyclohexyl}-3-fluoropyrrolidine hydrochloride] yielded a cum conv dose (rat, in vivo) of 63.33 µmol/kg. Further, the convulsion dose (rat, in vivo, iv) worked out at 10.67 µmol/kg/min.

With `COc1ccc(CCO[C@H]2CCCCC2N2CCC[C@@H]2CO)cc1OC.Cl` (stereo partly drawn) [Compound 15, {(2R)-1-{(1R,2R)/(1S,2S)-2-[2-(3,4-dimethoxyphenyl)-ethoxy]cyclohexyl}-pyrrolidin-2-yl}methanol hydrochloride], under “rat, in vivo”, the cum conv dose is 142.33 µmol/kg. Moreover, the convulsion dose (rat, in vivo, iv) is 16 µmol/kg/min.

`COc1ccc(CCOC2CCCC[C@H]2N2CC=CC2)cc1OC.Cl` (stereo partly drawn) [Compound 16, 1-{(1R,2R)/(1S,2S)-2-[2-(3,4-dimethoxyphenyl)-ethoxy]cyclohexyl}-2,5-dihydro-1H-pyrrole hydrochloride]: the cum conv dose (rat, in vivo) is 44.4 µmol/kg. Where the note is “rat, in vivo, iv”, this molecule returned a convulsion dose of 8 µmol/kg/min.

For the setting “rat, in vivo”, `COc1ccc(CCO[C@@H]2CCCC[C@H]2N2CC[C@@H](OC(C)=O)C2)cc1OC.Cl` [Compound 17, (3R)-1-{(1R,2R)-2-[2-(3,4-dimethoxyphenyl)-ethoxy]cyclohexyl}-pyrrolidin-3-yl acetate hydrochloride] returned a cum conv dose of 74.3 µmol/kg. The convulsion dose (rat, in vivo, iv) was found to be 13.33 µmol/kg/min.

Where the note is “rat, in vivo”, `COc1ccc(CCOC2CCCC[C@H]2N2CCC(=O)C2)cc1OC.Cl` (stereo partly drawn) [Compound 18, 1-{(1R,2R)/(1S,2S)-2-[2-(3,4-dimethoxyphenyl)-ethoxy]cyclohexyl}-pyrrolidin-3-one hydrochloride] yielded a cum conv dose of 235 µmol/kg. For the setting “rat, in vivo, iv”, this molecule showed a convulsion dose of 32 µmol/kg/min.

For `COc1ccc(CCCO[C@H]2CCCCC2N2CCOCC2)cc1OC.Cl` (stereo partly drawn) [Compound 19, 4-{(1R,2R)/(1S,2S)-2-[3-(3,4-dimethoxyphenyl)-propoxy]cyclohexyl}morpholine hydrochloride], where the note is “rat, in vivo”, the cum conv dose stood at 109 µmol/kg. In addition, the convulsion dose (rat, in vivo, iv) came out at 16 µmol/kg/min.

In turn, `COc1ccc(CCCCO[C@H]2CCCCC2N2CCOCC2)cc1OC.Cl` (stereo partly drawn) [Compound 20, 4-{(1R,2R)/(1S,2S)-2-[4-(3,4-dimethoxyphenyl)-butoxy]cyclohexyl}morpholine hydrochloride] displayed a cum conv dose (rat, in vivo) of 66.8 µmol/kg. The convulsion dose (rat, in vivo, iv) amounted to 10.7 µmol/kg/min.

`COc1cc(CCCO[C@H]2CCCCC2N2CC[C@@H](O)C2)cc(Cl)c1OC.Cl` (stereo partly drawn) [Compound 21, (3R)-1-{(1R,2R)/(1S,2S)-2-[3-(3-chloro-4,5-dimethoxyphenyl)-propoxy]cyclohexyl}pyrrolidin-3-ol hydrochloride]: the cum conv dose (rat, in vivo) turned out to be 90.9 µmol/kg. The convulsion dose (rat, in vivo, iv) was found to be 13.33 µmol/kg/min.

Regarding `COc1ccc(CCOC2CCCC[C@H]2N2CCN(C(=O)Cc3ccc(OC)c(OC)c3)CC2)cc1OC.Cl` (stereo partly drawn) [Compound 22, 1-[(3,4-dimethoxyphenyl)acetyl]-4-{(1R,2R)/(1S,2S)-2-[2-(3,4-dimethoxyphenyl)-ethoxy]cyclohexyl}-piperazine hydrochloride], the convulsion dose under setting [1] was found to be 21.33 µmol/kg/min. The cum conv dose under setting [2] came to 133 µmol/kg.

In turn, `Cl.OC1CCN(C2CCCC[C@@H]2OCCc2c(Cl)cccc2Cl)C1` (stereo partly drawn) [Compound 23, (3R)/(3S)-1-{(1R,2R)/(1S,2S)-2-[2-(2,6-dichlorophenyl)-ethoxy]cyclohexyl}-pyrrolidin-3-ol hydrochloride] came in with a cum conv dose (rat, in vivo) of 65 µmol/kg. Under “rat, in vivo, iv”, this molecule gave a convulsion dose of 8 µmol/kg/min.

On to `Cl.OC1CCN(C2CCCC[C@@H]2OCCc2ccccc2Br)C1` (stereo partly drawn) [Compound 24, (3R)/(3S)-1-{(1R,2R)/(1S,2S)-2-[2-(2-bromophenyl)-ethoxy]cyclohexyl}-pyrrolidin-3-ol hydrochloride], for which the cum conv dose (rat, in vivo) was 67 µmol/kg. In addition, the convulsion dose (rat, in vivo, iv) was found to be 13 µmol/kg/min.

The molecule `Cl.OC1CCN([C@@H]2CCCC[C@@H]2OCCc2cccc3ccccc23)C1` (stereo partly drawn) [Compound 25, (3R)/(3S)-1-{(1R,2S)/(1S,2R)-2-[2-(1-naphthyl)ethoxy]-cyclohexyl}-pyrrolidin-3-ol hydrochloride] yielded a cum conv dose (rat, in vivo) of 70 µmol/kg. Where the note is “rat, in vivo, iv”, the convulsion dose stood at 16 µmol/kg/min.

Under “rat, in vivo”, `Cl.OC1CCN(C2CCCC[C@@H]2OCCc2cccc3ccccc23)C1` (stereo partly drawn) [Compound 26, (3R)/(3S)-1-{(1R,2R)/(1S,2S)-2-[2-(1-naphthyl)ethoxy]-cyclohexyl}-pyrrolidin-3-ol hydrochloride] displayed a cum conv dose of 67.33 µmol/kg. Besides, the convulsion dose (rat, in vivo, iv) was 8 µmol/kg/min.

`Cl.O[C@@H]1CCN(C2CCCC[C@@H]2OCCc2ccccc2C(F)(F)F)C1` (stereo partly drawn) [Compound 27, (3R)-1-{(1R,2R)/(1S,2S)-2-[2-(2-Trifluoromethyl-phenyl)ethoxy]-cyclohexyl}-pyrrolidin-3-ol hydrochloride]: the cum conv dose (rat, in vivo) was determined as 101.93 µmol/kg. Under “rat, in vivo, iv”, this molecule came in with a convulsion dose of 16 µmol/kg/min.

Molecule `Cl.OC1CCN(C2CCCC[C@@H]2OCCn2ccc3ccccc32)C1` (stereo partly drawn) [Compound 28, (3R)/(3S)-1-{(1R,2R)/(1S,2S)-2-[2-(1H-indol-1-yl)ethoxy]cyclohexyl}pyrrolidin-3-ol hydrochloride] came in with a cum conv dose (rat, in vivo) of 113 µmol/kg. Further, the convulsion dose (rat, in vivo, iv) was 16 µmol/kg/min.

In the case of `Cl.O[C@@H]1CCN(C2CCCC[C@@H]2OCCc2cc3ccccc3o2)C1` (stereo partly drawn) [Compound 29, (3R)-1-{(1R,2R)/(1S,2S)-2-[2-(1-benzofuran-2-yl)ethoxy]-cyclohexyl}-pyrrolidin-3-ol hydrochloride], the cum conv dose (rat, in vivo) turned out to be 65.67 µmol/kg. This molecule showed a convulsion dose (rat, in vivo, iv) of 10.67 µmol/kg/min.
